Reference: EPA's ToxRefDB 2

How the values were obtained:
rat [1] = details: Prenatal developmental toxicity study, sprague dawley, Inhalation, Whole-Body, dose end: 20 GD
rat [2] = details: Subchronic oral toxicity in rodents; wistar; Inhalation; Whole-Body; dose end: 90 day; group: systemic; systemic / clinical chemistry / alkaline phosphatase (alp/alk) / alkaline phosphatase (alp/alk) + systemic / clinical chemistry / lactic …
mouse [3] = details: Combined chronic toxicity/carcinogenicity, cd1, Oral, Feed, dose end: 104 week, group: systemic
dog [4] = details: Subchronic oral toxicity in nonrodent, beagle, Capsule, dose end: 26 week, group: systemic
rat [5] = details: Multigenerational reproductive toxicity study, wistar, Oral, Feed, dose end: 3 generation
rat [6] = details: Combined chronic toxicity/carcinogenicity; sprague dawley; Oral; Feed; dose end: 2 year; group: systemic; systemic / in life observation / body weight / body weight + systemic / in life observation / food consumption / food consumption
rat [7] = details: Subchronic oral toxicity in rodents, wistar, [Not Specified], dose end: 13 week, group: systemic
rat [8] = details: Subchronic oral toxicity in rodents, sprague dawley, Feed, dose end: 90 day
mouse [9] = details: Carcinogenicity; cd1; Oral; Feed; dose end: 18 month; group: systemic; systemic / in life observation / body weight / body weight + systemic / in life observation / mortality / mortality
dog [10] = details: Chronic toxicity, beagle, Oral, Feed, dose end: 52 week
rat [11] = details: Prenatal developmental toxicity study, other, Oral, Gavage/Intubation, dose end: 16 GD
rat [12] = details: Multigenerational reproductive toxicity study, sprague dawley, Oral, Feed, dose end: 2 generation
[13] = group: developmental, systemic / in life observation / body weight / fetal weight
[14] = group: maternal, systemic / in life observation / body weight / body weight gain + systemic / in life observation / food consumption / food consumption
[15] = systemic / in life observation / clinical signs / defecation (diarrhea)
[16] = systemic / in life observation / clinical signs / defecation (diarrhea) + systemic / in life observation / clinical signs / headflicking + …
[17] = group: offspring, systemic / in life observation / body weight / offspring (pup) weight + systemic / in life observation / body weight / offspring (pup) …
[18] = group: parental, systemic / in life observation / body weight / body weight + systemic / in life observation / body weight / body weight gain
[19] = group: reproductive, reproductive / offspring survival early / litter size / litter size + reproductive / offspring survival early / birth index / live birth …
[20] = systemic / clinical chemistry / aminopyrine-n-demethylase / aminopyrine-n-demethylase + systemic / in life observation / body weight / body …
[21] = group: cholinesterase, cholinesterase / cholinesterase / cholinesterase / brain cholinesterase (che) + cholinesterase / cholinesterase / cholinesterase / …
[22] = group: systemic, systemic / in life observation / body weight / body weight + systemic / in life observation / clinical signs / abnormal gait + systemic / in…
[23] = group: cholinesterase, cholinesterase / cholinesterase / cholinesterase / brain cholinesterase (che)
[24] = group: cholinesterase, cholinesterase / cholinesterase / cholinesterase / brain cholinesterase (che) + cholinesterase / cholinesterase / cholinesterase / plasma …
[25] = group: systemic, systemic / in life observation / body weight / body weight + systemic / in life observation / body weight / body weight gain + systemic / in…
[26] = group: systemic, systemic / in life observation / body weight / body weight gain
[27] = group: maternal, systemic / in life observation / body weight / body weight gain + systemic / in life observation / clinical signs / tremors + systemic / in …
[28] = group: offspring, systemic / in life observation / body weight / offspring (pup) weight
[29] = group: offspring, systemic / in life observation / body weight / offspring (pup) weight + developmental / offspring survival late / [other] / [other] + …
[30] = group: parental, systemic / in life observation / body weight / body weight + systemic / in life observation / body weight / body weight gain + systemic / in…

## Cc1ccc(C)c(C)c1 [1,2,4-Trimethylbenzene]
Rat [1]; [13]
  LEL: 600 ppm
  LOAEL: > 600 ppm
  NEL: 300 ppm
  NOAEL: ≥ 600 ppm
Rat [1]; [14]
  LEL: 600 ppm
  LOAEL: > 600 ppm
  NEL: 300 ppm
  NOAEL: ≥ 600 ppm
Rat [2]
  LEL: 25 ppm
  LOAEL: > 250 ppm
  NEL: < 25 ppm
  NOAEL: ≥ 250 ppm

## CC1(C)C(C=C(Cl)C(F)(F)F)C1C(=O)OC(C#N)c1cccc(Oc2ccccc2)c1 (stereo unspecified) [Cyhalothrin]
Mouse [3]; systemic / in life observation / body weight / body weight + systemic / in life observation / body weight / body weight gain + systemic / in…
  NEL: 3 mg/kg/day
Mouse [3]; systemic / in life observation / clinical signs / hunched posture + systemic / in life observation / clinical signs / piloerection
  NOAEL: 15 mg/kg/day
Mouse [3]; systemic / in life observation / clinical signs / hunched posture + systemic / in life observation / clinical signs / piloerection + …
  LOAEL: 75 mg/kg/day
Mouse [3]; systemic / in life observation / clinical signs / piloerection
  LEL: 15 mg/kg/day
Dog [4]; [15]
  LEL: 2.5 mg/kg/day
  LOAEL: 2.5 mg/kg/day
Dog [4]; [16]
  NEL: 1 mg/kg/day
  NOAEL: 1 mg/kg/day
Rat [5]; [17]
  LEL: 1.5 mg/kg/day
  LOAEL: 5 mg/kg/day
  NEL: 0.5 mg/kg/day
  NOAEL: 1.5 mg/kg/day
Rat [5]; [18]
  LEL: 1.5 mg/kg/day
  LOAEL: 5 mg/kg/day
  NEL: 0.5 mg/kg/day
  NOAEL: 1.5 mg/kg/day
Rat [5]; group: reproductive, reproductive / offspring survival early / litter size / litter size
  NEL: 1.5 mg/kg/day
Rat [5]; [19]
  LEL: 5 mg/kg/day
  LOAEL: > 5 mg/kg/day
  NOAEL: ≥ 5 mg/kg/day
Rat [6]
  LEL: 12.5 mg/kg/day
  LOAEL: 12.5 mg/kg/day
  NEL: 2.5 mg/kg/day
  NOAEL: 2.5 mg/kg/day
Rat [7]; systemic / clinical chemistry / aminopyrine-n-demethylase / aminopyrine-n-demethylase
  LEL: 2.5 mg/kg/day
Rat [7]; [20]
  NEL: 0.5 mg/kg/day
  NOAEL: 2.5 mg/kg/day
Rat [7]; systemic / in life observation / body weight / body weight gain
  LOAEL: 12.5 mg/kg/day

## CNC(=O)ON=C(SC)C(=O)N(C)C [Oxamyl]
Rat [8]; [21]
  LEL: 14.9 mg/kg/day
  LOAEL: 14.9 mg/kg/day
  NEL: 2.1 mg/kg/day
  NOAEL: 2.1 mg/kg/day
Rat [8]; [22]
  LEL: 14.9 mg/kg/day
  LOAEL: 14.9 mg/kg/day
  NEL: 2.1 mg/kg/day
  NOAEL: 2.1 mg/kg/day
Mouse [9]
  LEL: 7.5 mg/kg/day
  LOAEL: 7.5 mg/kg/day
  NEL: 3.75 mg/kg/day
  NOAEL: 3.75 mg/kg/day
Dog [10]; [23]
  LOAEL: 1.56 mg/kg/day
  NOAEL: < 1.56 mg/kg/day
Dog [10]; [24]
  LEL: 1.56 mg/kg/day
  NEL: < 1.56 mg/kg/day
Dog [10]; [25]
  LOAEL: 4.5 mg/kg/day
  NOAEL: 1.46 mg/kg/day
Dog [10]; [26]
  LEL: 1.56 mg/kg/day
  NEL: < 1.56 mg/kg/day
Rat [11]; [13]
  LEL: 0.5 mg/kg/day
  LOAEL: 0.5 mg/kg/day
  NEL: 0.2 mg/kg/day
  NOAEL: 0.2 mg/kg/day
Rat [11]; [27]
  LEL: 0.8 mg/kg/day
  LOAEL: 0.8 mg/kg/day
  NEL: 0.5 mg/kg/day
  NOAEL: 0.5 mg/kg/day
Rat [12]; [28]
  LEL: 5.2 mg/kg/day
  LOAEL: 5.2 mg/kg/day
Rat [12]; [29]
  NEL: 1.7 mg/kg/day
  NOAEL: 1.7 mg/kg/day
Rat [12]; [30]
  LEL: 5.2 mg/kg/day
  LOAEL: 5.2 mg/kg/day
  NEL: 1.7 mg/kg/day
  NOAEL: 1.7 mg/kg/day
